Source: US7005124B2, “Dendritic-antineoplastic drug delivery system” (priority 1997, dated 2006)
Like-named read-outs stand apart in the source and are kept apart here.

Tests used:
B16F10 [1] = assay: Cell cytotoxicity of dendrimer-platinate, MTT; type: cell-based, murine; conditions: Pt-equiv.
Protocol: (§1) All cellular growth and cytotoxic incubations were carried out in a cell incubator at 37° C. and 5% CO2 atmosphere.
(§2) Cell density was assessed using an improved neurenbrow hemocytometer (Sigma). The cells were washed with PBS twice and fresh RPMI media (supplemented with FCS) added, the cells were then seeded in a microtitre plate. The cells were left for 24 hours to recover and re-adhere. If cells were in a suspension they were spun at 1000×g and resuspended in fresh media.
(§3) Some cells were left in media only to act as cellular controls. The cells were left in the incubator for 72 hours, and checked occasionally for yeast or bacterial contamination. Five hours prior to the incubation time end point, at 67 hours, 20 μl of MTT was added and the cells left for the final 5 hours. Then cellular media was removed and 100 μl of optical grade DMSO (Sigma) was added and the MTT crystals dissolved.

CCRF-CEM = assay: Cell cytotoxicity of dendrimer-platinate, MTT; type: cell-based, human; conditions: Pt-equiv.
Protocol: as §1, §2, §3

Cor L23 = assay: Cell cytotoxicity of dendrimer-platinate, MTT; type: cell-based, human; conditions: Pt-equiv.
Protocol: as §1, §2, §3

B16F10 [2] = assay: Activity against B16F10 I.P., I.P. injection; type: in vivo, C57 mice; conditions: dose 5 Pt-equiv mg/Kg, day 1
Protocol: (§4) Alternatively drug was administered I.V. to mice bearing S.C. implanted B16F10 when the tumor reached palpable size (50–100 mm^2). Animal weight, tumor size and animal survival were monitored (UK guidelines for animal experiments involving neoplasia were followed.)
(§5) Li 210 or B16F10 cells were injected at a cell density into a mouse (DBA2 or C57 respectively, 25 g) at a cell density of 1×10^5 (0.9% saline solution) into the intraperitoneal (I.P. 100 μl) cavity. […] The mouse body weight and general toxicity was also monitored according to UK guidelines in the use of animals used in neoplasia studies. At the end point the gross morphology of the organs was noted.

L1210 = L1210 ip
Protocol: as §4, §5

Question: What does the source list for `N.N.[Cl][Pt][Cl]` [Cisplatin, cis-diamminedichloroplatinum]?
Answer: IC50 Values (B16F10 [1]): 9 µg/mL; IC50 Values (CCRF-CEM): 5 µg/mL; IC50 Values (Cor L23): 1 µg/mL; T/C (B16F10 [2]): 89; T/C (L1210; dose 2 Pt-equiv mg/Kg I.P. days 1, 2, 3): 171; T/C (L1210; dose 3 Pt-equiv mg/Kg I.P. days 1, 2, 3): 64
